Values quoted from earlier work in US7829066B2, “Assay for anti-metastatic agents” (Memorial Sloan-Kettering Cancer Center, priority 2006, dated 2010).

Tested on: metastatic tumors
Conditions: stated as known

Avastin: an anti-VEGF inhibitor that is known to inhibit metastatic tumors
inhibition of metastatic tumors: known to inhibit metastatic tumors
